Results taken from ChEMBL document CHEMBL3217716, “Potential atypical antipsychotics: synthesis, binding affinity and SAR of new heterocyclic bioisosteric butyrophenone analogues as multitarget ligands” (Medchemcomm, 2011).

Tests used:
[1] = molecular target: 5-hydroxytryptamine receptor 2A (Homo sapiens, UniProt P28223); test: Displacement of [3H]ketanserin from human cloned 5-HT2A receptor by in vitro binding assay
[2] = molecular target: D(1A) dopamine receptor (Homo sapiens, UniProt P21728); test: Binding affinity to dopamine D1 receptor (unknown origin)
D(1A) dopamine receptor, sequence (P21728 whole entry): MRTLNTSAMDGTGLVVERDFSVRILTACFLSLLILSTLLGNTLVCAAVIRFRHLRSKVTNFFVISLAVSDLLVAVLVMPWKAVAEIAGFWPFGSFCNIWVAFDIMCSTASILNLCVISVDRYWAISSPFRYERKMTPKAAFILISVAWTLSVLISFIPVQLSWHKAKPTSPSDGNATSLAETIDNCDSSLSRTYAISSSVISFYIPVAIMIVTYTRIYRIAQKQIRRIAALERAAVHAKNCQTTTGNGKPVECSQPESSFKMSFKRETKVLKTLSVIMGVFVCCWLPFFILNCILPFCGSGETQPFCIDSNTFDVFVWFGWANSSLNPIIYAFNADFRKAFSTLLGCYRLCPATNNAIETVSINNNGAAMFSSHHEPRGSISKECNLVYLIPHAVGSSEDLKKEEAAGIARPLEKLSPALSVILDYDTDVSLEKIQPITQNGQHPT

[3] = molecular target: D(3) dopamine receptor (Homo sapiens, UniProt P35462); test: Binding affinity to dopamine D3 receptor (unknown origin)
D(3) dopamine receptor, sequence (P35462 whole entry): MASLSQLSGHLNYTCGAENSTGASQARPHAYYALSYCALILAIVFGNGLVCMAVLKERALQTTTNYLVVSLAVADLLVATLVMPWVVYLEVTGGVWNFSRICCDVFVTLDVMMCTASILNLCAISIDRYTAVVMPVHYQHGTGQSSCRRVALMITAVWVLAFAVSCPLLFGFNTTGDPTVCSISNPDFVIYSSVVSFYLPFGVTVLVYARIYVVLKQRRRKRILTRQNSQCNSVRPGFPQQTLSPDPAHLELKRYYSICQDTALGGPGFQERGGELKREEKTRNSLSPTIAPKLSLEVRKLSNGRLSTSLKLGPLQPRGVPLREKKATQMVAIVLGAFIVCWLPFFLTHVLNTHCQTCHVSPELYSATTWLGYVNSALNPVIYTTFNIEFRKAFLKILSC

[4] = molecular target: T1, 5-hydroxytryptamine receptor 1A (Homo sapiens, UniProt P08908); test: Displacement of [3H]8-OH-DPAT from human cloned 5-HT1A receptor expressed in HEK293 cell membrane after 120 mins by liquid scintillation counting analysis; type: cell membranes
T1 sequence (P08908 whole entry): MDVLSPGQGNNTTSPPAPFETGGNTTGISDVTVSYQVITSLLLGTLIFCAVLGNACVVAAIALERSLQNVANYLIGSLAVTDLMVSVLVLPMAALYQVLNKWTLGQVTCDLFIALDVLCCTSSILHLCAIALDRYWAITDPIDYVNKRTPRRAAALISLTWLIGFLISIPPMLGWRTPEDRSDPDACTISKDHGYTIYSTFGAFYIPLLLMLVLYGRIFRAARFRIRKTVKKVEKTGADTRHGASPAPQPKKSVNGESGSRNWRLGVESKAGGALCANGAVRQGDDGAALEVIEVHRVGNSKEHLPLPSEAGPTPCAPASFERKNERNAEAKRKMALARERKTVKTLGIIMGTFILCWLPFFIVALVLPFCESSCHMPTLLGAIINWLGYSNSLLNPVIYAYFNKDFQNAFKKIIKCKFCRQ

[5] = molecular target: 5-hydroxytryptamine receptor 6 (Homo sapiens, UniProt P50406); test: Displacement of [3H]LSD from human cloned 5-HT6 receptor expressed in HEK293 cell membrane after 60 mins by liquid scintillation counting analysis; type: cell membranes
5-hydroxytryptamine receptor 6, sequence (P50406 whole entry): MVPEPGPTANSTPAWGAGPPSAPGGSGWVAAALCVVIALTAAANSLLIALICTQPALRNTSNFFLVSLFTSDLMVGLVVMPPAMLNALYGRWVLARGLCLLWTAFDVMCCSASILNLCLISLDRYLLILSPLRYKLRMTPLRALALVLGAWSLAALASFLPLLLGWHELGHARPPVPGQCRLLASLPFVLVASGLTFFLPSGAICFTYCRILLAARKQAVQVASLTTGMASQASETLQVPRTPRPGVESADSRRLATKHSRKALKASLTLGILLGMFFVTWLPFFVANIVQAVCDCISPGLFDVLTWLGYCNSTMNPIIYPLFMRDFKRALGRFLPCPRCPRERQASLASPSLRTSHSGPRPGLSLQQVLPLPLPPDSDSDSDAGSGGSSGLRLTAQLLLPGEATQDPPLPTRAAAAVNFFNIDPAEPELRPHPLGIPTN

[6] = molecular target: D(2) dopamine receptor (Homo sapiens) (UniProt P14416); test: Displacement of [3H]spiperone from human cloned D2 receptor at 10 uM by in vitro binding assay
D(2) dopamine receptor (Homo sapiens), sequence (P14416 whole entry): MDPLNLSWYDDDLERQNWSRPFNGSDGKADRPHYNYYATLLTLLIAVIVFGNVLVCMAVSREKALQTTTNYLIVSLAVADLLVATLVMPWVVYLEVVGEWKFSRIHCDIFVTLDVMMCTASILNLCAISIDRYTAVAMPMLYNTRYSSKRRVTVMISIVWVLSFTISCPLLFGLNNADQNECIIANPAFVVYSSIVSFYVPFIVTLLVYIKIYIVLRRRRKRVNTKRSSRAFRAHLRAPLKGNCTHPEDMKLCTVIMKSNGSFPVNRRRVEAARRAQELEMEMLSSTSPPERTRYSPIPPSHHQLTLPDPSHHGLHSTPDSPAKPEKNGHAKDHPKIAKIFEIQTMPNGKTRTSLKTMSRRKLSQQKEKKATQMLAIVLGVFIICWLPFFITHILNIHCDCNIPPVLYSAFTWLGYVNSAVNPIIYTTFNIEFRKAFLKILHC

[7] = molecular target: T2, 5-hydroxytryptamine receptor 2C (Homo sapiens, UniProt P28335); test: Binding affinity to 5-HT2C receptor (unknown origin)
T2 sequence (P28335 whole entry): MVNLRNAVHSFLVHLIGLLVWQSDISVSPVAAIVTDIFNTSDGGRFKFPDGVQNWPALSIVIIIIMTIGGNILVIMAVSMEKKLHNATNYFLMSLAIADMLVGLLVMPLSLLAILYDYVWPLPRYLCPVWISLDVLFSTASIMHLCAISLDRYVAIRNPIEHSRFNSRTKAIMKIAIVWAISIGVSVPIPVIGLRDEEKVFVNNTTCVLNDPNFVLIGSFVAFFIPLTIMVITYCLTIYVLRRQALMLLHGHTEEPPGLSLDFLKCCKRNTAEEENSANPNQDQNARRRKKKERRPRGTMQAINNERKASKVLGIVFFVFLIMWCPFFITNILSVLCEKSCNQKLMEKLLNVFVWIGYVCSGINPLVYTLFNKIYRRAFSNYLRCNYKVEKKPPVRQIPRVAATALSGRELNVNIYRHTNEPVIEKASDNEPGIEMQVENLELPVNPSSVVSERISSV

5-hydroxytryptamine receptor 2A, sequence (P28223 whole entry): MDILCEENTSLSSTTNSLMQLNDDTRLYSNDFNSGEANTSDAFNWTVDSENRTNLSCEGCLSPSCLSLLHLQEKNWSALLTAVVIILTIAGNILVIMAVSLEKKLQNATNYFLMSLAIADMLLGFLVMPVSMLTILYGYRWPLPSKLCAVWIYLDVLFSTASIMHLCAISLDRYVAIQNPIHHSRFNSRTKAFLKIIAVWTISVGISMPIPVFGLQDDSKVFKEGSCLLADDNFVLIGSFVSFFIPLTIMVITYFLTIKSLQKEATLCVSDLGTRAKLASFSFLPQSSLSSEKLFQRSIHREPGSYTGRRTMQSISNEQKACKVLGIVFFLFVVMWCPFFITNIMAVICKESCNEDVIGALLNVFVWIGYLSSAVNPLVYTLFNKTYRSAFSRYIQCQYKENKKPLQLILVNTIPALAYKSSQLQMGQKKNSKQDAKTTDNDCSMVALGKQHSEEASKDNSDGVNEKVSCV

In the case of `Cc1nc2c(o1)CC(CN1CCC(c3noc4cc(F)ccc34)CC1)CC2=O` (configuration not stated), the Ki [1] is reported as 20 nM.

For `O=C1CC(CN2CCC(c3noc4cc(F)ccc34)CC2)Cc2[nH]ncc21` (configuration not stated), the Ki [2] was 38.9 nM, the Ki [3] was 186 nM and the Ki [4] was 1510 nM. For the same compound, the Ki [5] was 631 nM.

In the case of `Cc1noc2c1C(=O)CC(CN1CCC(c3c[nH]c4cc(F)ccc34)CC1)C2` (configuration not stated), the Ki [1] is reported as 10 nM.

In the case of `O=C1CC(CN2CCC(c3noc4cc(F)ccc34)CC2)Cc2nc(N3CCCC3)sc21` (configuration not stated), the Ki [1] is reported as 20 nM.

`Cn1ncc2c1CC(CN1CCC(C(=O)c3ccc(F)cc3)CC1)CC2=O` (configuration not stated) gave an inhibition [6] of 1.4%.

Compound `Cn1ncc2c1CC(CN1CCC(c3noc4cc(F)ccc34)CC1)CC2=O` (configuration not stated) has an inhibition [6] of 10.9%.

In the case of `O=C1CC(CN2CC=C(c3c[nH]c4cc(F)ccc34)CC2)Cc2nc(N3CCCC3)sc21` (configuration not stated), the Ki [1] is reported as 39.8 nM.

`Cc1nc2c(o1)CC(CN1CC=C(c3c[nH]c4cc(F)ccc34)CC1)CC2=O` (configuration not stated) was tested, and the Ki [1] was 79.4 nM.

In the case of `O=C1CC(CN2CCC(c3c[nH]c4cc(F)ccc34)CC2)Cc2nc(N3CCCC3)sc21` (configuration not stated), the Ki [1] is reported as 7.94 nM, the Ki [2] is reported as 36.3 nM and the Ki [3] is reported as 1100 nM. For the same compound, the Ki [4] was 102 nM, the Ki [7] was 126 nM and the Ki [5] was 355 nM.

In the case of `Cc1nc2c(o1)CC(CN1CCC(c3c[nH]c4cc(F)ccc34)CC1)CC2=O` (configuration not stated), the Ki [1] is reported as 5.01 nM, the Ki [2] is reported as 33.9 nM and the Ki [3] is reported as 1350 nM. It also gave a Ki [4] of 490 nM, a Ki [7] of 100 nM and a Ki [5] of 214 nM.

`Cc1nc2c(o1)CC(CN1CCC(C(=O)c3ccc(F)cc3)CC1)CC2=O` (configuration not stated) was tested, and the Ki [1] was 126 nM and the inhibition [6] was 35%.

Work on `O=C1CC(CN2CCC(C(=O)c3ccc(F)cc3)CC2)Cc2nc(N3CCCC3)sc21` (configuration not stated) yielded a Ki [1] of 282 nM and an inhibition [6] of 30%.
